We go through four molecules from article PMC11151873, “Cathelicidin-HG Alleviates Sepsis-Induced Platelet Dysfunction by Inhibiting GPVI-Mediated Platelet Activation” (Research, 2024).

The subject of test [1] is CLP septic mice. Briefly: Microvascular thrombosis by fluorescent bead imaging in CLP mice. The class given is in vivo, Male BALB/c mice. Conditions: lungs, liver, kidneys; i.p. 2 h after CLP; Cath-HG 1.25, 2.5, 5 mg/kg or clopidogrel 20 mg/kg. As for the experimental part: (§1) CLP-induced sepsis was performed based on our previous method with minor modifications. Briefly, under sterile conditions, the cecum of anesthetized mice was exposed and tightly ligated approximately 1 cm from the end. Then, the cecum was punctured twice at different mid-points with a 22-gauge needle, gently squeezed to extrude a small amount of fecal matter, returned into the peritoneal cavity which was sutured. Finally, the mice underwent resuscitation through the administration of 1 ml of preheated physiological saline via subcutaneous injection. […] Clopidogrel (20 mg/kg) was administered as a positive control, and blank control mice underwent sham surgery and received saline. All mice were monitored for 72 h after the induction of CLP. Another group of mice underwent the same procedure described above. Twenty-four hours after the surgery, the mice were euthanized, and blood, heart, liver, spleen, lung, and kidney samples were collected for subsequent analysis.

In test [2] the test system is lactate dehydrogenase (LDH). Description: Serum LDH activity in CLP mice. Conditions: i.p. 2 h after CLP; Cath-HG 1.25, 2.5, 5 mg/kg or clopidogrel 20 mg/kg; n = 4. The class given is in vivo, Male BALB/c mice. As for the experimental part: as §1
For platelet count determination, blood was collected in EDTA and analyzed using a PE-6800 Fully Auto Hematology Analyzer (Prokan, Shenzhen, China). […] TPO levels were determined by ELISA, and LDH activity was measured using an LDH assay kit.

Test [3] deals with CLP septic mice. Briefly: Bacterial loads in organs of CLP mice. The class given is in vivo, Male BALB/c mice. The following applies: heart, liver, spleen, lung, kidney; 24 h after CLP; i.p. Cath-HG 1.25, 2.5, 5 mg/kg or clopidogrel 20 mg/kg. As for the experimental part:
as §1

Test [4] relates to phosphorylation of Src, Syk, PLCγ2, and Akt. Briefly: Western blot: phosphorylation of GPVI downstream proteins in collagen-stimulated platelets. The class given is cell-based, mice. The following applies: washed platelets, Cath-HG 5, 10, 20 μM 5 min, n = 3, or dasatinib (Src inhibitor). The protocol:
The platelets were lysed with radioimmunoprecipitation assay buffer containing protease inhibitor and phosphatase inhibitor cocktails, and the protein concentration was determined with a bicinchoninic acid protein assay kit before SDS-polyacrylamide gel electrophoresis separation and polyvinylidene difluoride (PVDF) membrane transferring. The membranes were incubated with corresponding primary antibodies overnight at 4 °C and appropriate horseradish peroxidase-conjugated secondary antibodies at room temperature for 1 h after being blocked with 5% skimmed milk at room temperature for 1 h. Finally, the results were recorded using a FluorChem R chemiluminescence imaging system (ProteinSimple, CA, USA) and analyzed using ImageJ software.
(Immunoblotting shows a protein as a band on a membrane.)

For test [5], the target named is platelet glycoprotein VI (mouse (endogenous in mouse platelets)) (UniProt P0C191).
UniProt P0C191, sequence (P0C191 22-313): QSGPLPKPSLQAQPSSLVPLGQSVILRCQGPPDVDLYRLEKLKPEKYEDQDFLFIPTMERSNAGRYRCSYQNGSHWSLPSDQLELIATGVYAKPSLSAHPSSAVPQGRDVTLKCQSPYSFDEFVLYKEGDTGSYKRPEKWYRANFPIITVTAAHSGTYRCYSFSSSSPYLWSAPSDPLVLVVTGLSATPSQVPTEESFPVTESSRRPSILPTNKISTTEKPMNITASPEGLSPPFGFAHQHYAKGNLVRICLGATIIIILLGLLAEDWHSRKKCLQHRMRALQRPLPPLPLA
The test system of the next test is FeCl3-injured mice. Briefly: FeCl3-induced carotid artery thrombosis model. The class given is in vivo, Male BALB/c mice. Conditions: FeCl3 10% (w/v), i.v. 30 min before injury, Cath-HG 5 mg/kg or heparin 1,000 U/kg. As for the experimental part:
The carotid artery thrombus experiment was carried out as described by Zhang et al. […] Anesthesia was induced with 2.0% isoflurane before the left carotid artery was exposed through a midline neck incision. A small piece of filter paper (2 mm × 1 mm) saturated with 10% (w/v) FeCl3 solution was placed on the carotid artery for 5 min to induce thrombus formation. The filter paper was then removed, and the artery was washed with saline. The carotid blood flow and occlusion time were measured to evaluate thrombus formation with the RFLSI Pro+ laser speckle blood flow imaging system (RWD, Shenzhen, China).

Regarding `COC(=O)[C@H](c1ccccc1Cl)N1CCc2sccc2C1` [clopidogrel], the “microvascular thrombosis (fluorescence of beads)” value in the test on CLP septic mice [1] is “reduced the fluorescence levels of lungs, liver, and kidneys”. Also, in test [2], the “LDH activity in serum” value is “significantly decreased after Cath-HG or clopidogrel treatment”. The “bacterial load in organs” value with CLP septic mice [3] is “reduced the bacterial burden in the organs of CLP mice”.

Turning to `Cc1nc(Nc2ncc(C(=O)Nc3c(C)cccc3Cl)s2)cc(N2CCN(CCO)CC2)n1` [dasatinib], the “collagen-induced phosphorylation of GPVI downstream proteins (Src, Syk, PLCγ2, Akt)” value in test [4] is given as “completely inhibited”. Take Cathelicidin-HG (peptide): the inhibition of platelet aggregation in platelet-rich plasma induced by the GPVI-specific agonist convulxin (0.6 nM); Cath-HG 5, 10 and 20 μM, value at 20 μM in test [5] turned out to be 63.2%. heparin: the carotid blood flow result in the test with FeCl3-injured mice (laser speckle imaging) was “significantly increased blood flow”. Also, in the test with FeCl3-injured mice (n = 3, mean ± SD, control 2.9 ± 0.3 min), the “mean occlusion time of carotid artery” value was 5.4 ± 0.3 min.
